The structures appear in SMILES notation. Values joined by “and” are separate entries in the source; they are usually repeats but may differ in a detail not shown here. Equal values may be shown once.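 Following 48 hours of exposure in 96-well plates, responses at five concentrations were used to interpolate endpoints linearly. The concentration for 50% growth inhibition is given as GI50. TGI: concentration producing complete growth inhibition.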

Among the test systems are 786-0 renal; CAKI-1 renal; K-562 leukemia; NCI-H522 lung; NCI/ADR-RES ovarian; RPMI-8226 leukemia; SF-268 CNS; SF-295 CNS; SK-OV-3 ovarian; SNB-75 CNS.
Holding throughout (assay): NCI-60 cell line screen, 48 h

For `CC(C)/C=C1\CCC(CN(C)C)C1=O` (configuration not stated), the TGI stood at 1.25 µM with 786-0 renal; 4.21 µM in the experiment on CAKI-1 renal; 7.85 µM with K-562 leukemia; 0.22 µM in the experiment with NCI-H522 lung; 10.6 µM with NCI/ADR-RES ovarian; 2.36 µM with RPMI-8226 leukemia. Besides, the TGI with SF-268 CNS turned out to be 38.8 µM; in the experiment on SF-295 CNS it was 31.2 µM; with SK-OV-3 ovarian, 32.4 µM; in the experiment with SNB-75 CNS, 6.51 µM.

For `Nc1nc2c(N)cc(C(F)(F)F)cc2nc1-c1ccccc1`, the TGI in the experiment with 786-0 renal, in the experiment on CAKI-1 renal, with K-562 leukemia, in the experiment on NCI-H522 lung, in the experiment on SF-268 CNS and in the experiment on SF-295 CNS was over 100 µM throughout. Also, the results for the TGI with SK-OV-3 ovarian and in the experiment on SNB-75 CNS were over 100 µM and 93.5 µM, respectively.

On to `Cc1ccc(C(=O)CC2(O)C(=O)Nc3c(C)cc(Cl)cc32)cc1` (configuration not stated), for which the TGI in the experiment with 786-0 renal, with CAKI-1 renal, in the experiment with K-562 leukemia, with NCI-H522 lung, in the experiment on RPMI-8226 leukemia and in the experiment with SF-268 CNS was over 100 µM throughout. Moreover, the TGI with SF-295 CNS, in the experiment with SK-OV-3 ovarian and in the experiment with SNB-75 CNS was over 100 µM in each case.

As for `CC1=C(c2nc3ccccc3s2)C(=O)OC1(C)C`, the TGI with 786-0 renal, with CAKI-1 renal, with K-562 leukemia, in the experiment with NCI-H522 lung, in the experiment on RPMI-8226 leukemia and in the experiment on SF-268 CNS was over 100 µM each time. The TGI in the experiment on SF-295 CNS, in the experiment on SK-OV-3 ovarian and with SNB-75 CNS was over 100 µM in each case.

As for `O=C1[C@@H]2C(c3ccc(Br)cc3)=NO[C@@H]2C(=O)N1c1ccc(Cc2ccc(N3C(=O)[C@H]4C(c5ccc(Br)cc5)=NO[C@H]4C3=O)cc2)cc1`, the TGI with 786-0 renal was over 3.48 µM; in the experiment on CAKI-1 renal, over 40 µM; in the experiment with K-562 leukemia it was over 40 µM; with NCI-H522 lung, over 40 µM; in the experiment on RPMI-8226 leukemia, over 40 µM; in the experiment with SF-268 CNS it was over 3.48 µM. The TGI in the experiment with SF-295 CNS is over 3.48 µM; in the experiment with SK-OV-3 ovarian, over 3.48 µM; in the experiment with SNB-75 CNS it was over 40 µM. Besides, the GI50 with CAKI-1 renal, in the experiment with K-562 leukemia, in the experiment with NCI-H522 lung, in the experiment on RPMI-8226 leukemia and with SNB-75 CNS was over 40 µM throughout.

Consider `COc1ccc(C2=Nc3c(nc(OC)[nH]c3=O)NC(c3ccccc3)C2)cc1` (configuration not stated), for which the TGI in the experiment with 786-0 renal is 93.6 µM; with CAKI-1 renal, over 100 µM; in the experiment with K-562 leukemia it was 73.1 µM; in the experiment on NCI-H522 lung it was over 100 µM; with NCI/ADR-RES ovarian, over 100 µM; in the experiment with RPMI-8226 leukemia it was 91.5 µM. Further, the TGI was over 100 µM with SF-295 CNS and 58.5 µM in the experiment with SNB-75 CNS.

On to `O=C(Cc1ccccc1)NN1C(=O)C(Cl)C1c1ccccc1Cl` (configuration not stated), for which the TGI in the experiment with 786-0 renal is over 100 µM; with CAKI-1 renal, over 100 µM; in the experiment on K-562 leukemia, over 100 µM; in the experiment with NCI-H522 lung, 28 µM; in the experiment on RPMI-8226 leukemia, 51.1 µM; in the experiment on SF-268 CNS, over 100 µM. The TGI in the experiment on SF-295 CNS, in the experiment with SK-OV-3 ovarian and with SNB-75 CNS was over 100 µM each time.

Consider `COc1cc2ccc3c4ccccc4cnc3c2cc1OC`, for which the TGI with 786-0 renal, with CAKI-1 renal, in the experiment with K-562 leukemia, with NCI-H522 lung, with RPMI-8226 leukemia and with SF-268 CNS was over 100 µM in each case. The TGI in the experiment with SF-295 CNS, in the experiment on SK-OV-3 ovarian and with SNB-75 CNS was over 100 µM in each case.

As for `CCOc1ccccc1N=Nc1ccc2oc(=O)c(C(C)=O)cc2c1`, the TGI with 786-0 renal, in the experiment with CAKI-1 renal, in the experiment on K-562 leukemia, in the experiment on NCI-H522 lung, in the experiment with RPMI-8226 leukemia and with SF-268 CNS was over 100 µM in each case. The TGI was over 100 µM with SF-295 CNS, over 100 µM with SK-OV-3 ovarian and 43.2 µM in the experiment on SNB-75 CNS.

Consider `Clc1ccc(Nc2nnc(CNc3ccc(-c4nnc(Nc5ccc(Cl)cc5)s4)cc3)s2)cc1`, for which the TGI in the experiment on 786-0 renal was 75.1 µM; with CAKI-1 renal, over 100 µM; in the experiment on K-562 leukemia, over 100 µM; in the experiment with NCI-H522 lung, 43.2 µM; with NCI/ADR-RES ovarian, over 100 µM; in the experiment on RPMI-8226 leukemia it was over 100 µM. In addition, the TGI is over 100 µM in the experiment with SF-268 CNS, 84.3 µM in the experiment with SF-295 CNS, over 100 µM in the experiment on SK-OV-3 ovarian and over 100 µM with SNB-75 CNS.

With `N#CC(NNC(=O)Cc1ccccc1)c1cccc(O)c1` (configuration not stated), the TGI with 786-0 renal, in the experiment with CAKI-1 renal, in the experiment on K-562 leukemia, in the experiment with NCI-H522 lung, in the experiment on RPMI-8226 leukemia and with SF-268 CNS was over 100 µM throughout. Besides, the TGI in the experiment with SF-295 CNS, in the experiment on SK-OV-3 ovarian and in the experiment with SNB-75 CNS was over 100 µM throughout.

Turning to `COC(=O)C1CC2C=CC=CC(=O)C2(C)C1` (configuration not stated), the TGI with 786-0 renal was over 100 µM; with CAKI-1 renal it was over 100 µM; with K-562 leukemia it was over 100 µM; in the experiment on RPMI-8226 leukemia it was 59.5 µM; with SF-268 CNS it was over 100 µM; in the experiment on SF-295 CNS, over 100 µM. Further, in the experiment with SK-OV-3 ovarian, the TGI is over 100 µM.

Turning to `C=C1CC(C)(COc2ccc3c(C)c(Cl)c(=O)oc3c2)OC1=O` (configuration not stated), the TGI in the experiment on 786-0 renal was 4.65 µM; in the experiment with CAKI-1 renal, 6.58 µM; in the experiment on K-562 leukemia it was 5.98 µM; with NCI-H522 lung it was 2.1 µM; in the experiment with NCI/ADR-RES ovarian it was 14.2 µM; in the experiment with RPMI-8226 leukemia, 1.83 µM. The TGI in the experiment with SF-268 CNS is 19.2 µM; with SF-295 CNS it was 21.4 µM; with SK-OV-3 ovarian, 17.6 µM; in the experiment on SNB-75 CNS, 7.95 µM.

With `CC1=CC(=O)CC2(C)CCC(C(C)CC(=O)CC(C)C)CC12OO` (configuration not stated), the TGI with 786-0 renal is 22.7 µM and 26 µM; in the experiment on CAKI-1 renal it was 33.5 µM and 33.4 µM; with K-562 leukemia, 75 µM and 31.9 µM; in the experiment with NCI-H522 lung it was 19.5 µM and 26.9 µM; in the experiment with NCI/ADR-RES ovarian, 56.6 µM and 81.2 µM; in the experiment with RPMI-8226 leukemia, 76.5 µM and 46.1 µM. The TGI was 44.1 µM and 32.6 µM in the experiment on SF-268 CNS; 31 µM and 30 µM with SF-295 CNS; 44.9 µM and > 100 µM with SNB-75 CNS. Moreover, the GI50 in the experiment on NCI-H522 lung is 4.8 µM and 12.6 µM; with SNB-75 CNS, 19.8 µM and 55.7 µM.

The values are drawn from PubChem BioAssay (NCI).
